Assay results published in paper PMC6631119, “Nasal Administration and Plasma Pharmacokinetics of Parathyroid Hormone Peptide PTH 1-34 for the Treatment of Osteoporosis” (Pharmaceutics, 2019).
Where two headings read alike, the source gives them in different places.

What was measured:
[1] = Healthy human volunteer plasma pharmacokinetics of PTH 1-34 (open cross-over, ELISA); format: in vivo; conditions: human
Method: An open cross-over clinical IMP (investigative medicinal product) study was conducted in seven healthy female subjects aged over 55 years (mean age 67.7, range 58 to 81 years). Each participant provided informed consent in accordance with ethical committee requirements and good clinical practice. Pre-study screening assessments were carried out within 21 days of the participants receiving their first dose (Supplementary Materials: Section S1). Inclusion and exclusion criteria were applied (Supplementary Materials: Section S2). Participants were admitted to the study centre on the morning of dosing, having abstained from alcohol and smoking for at least 24 h previously and fasted from midnight. Participants were given a light meal on arrival. A cannula was then positioned in the participant’s arm or hand to facilitate the collection of blood samples. The pre-dose sample was taken. Participants received a single subcutaneous injection of 20 μg teriparatide into the abdomen at their first trial visit. Following a seven day wash out period, each participant self-administered 90 μg PTH 1-34 from the nasal spray formulation using the Rexam SP270 nasal spray device; the patients had previously been trained in operation of the Rexam device. Any episodes of sneezing after administration of the nasal formulation were recorded. The nasal spray formulation contained Tc-99m-DTPA, 3–5 MBq per Rexam SP270 nasal spray dose, resulting in an effective radiation dose of less than 0.14 mSv to each participant.
Following either subcutaneous or intranasal dosing, 10 mL blood samples (Becton Dickinson sodium heparin) were taken at 5, 15, 30, 60 120, 180, 240, 300 and 360 min. After each sample was taken, the cannula was flushed with 10 mL 0.9% saline. Blood was stored on ice and centrifuged within 30 min to prepare plasma (4 °C, 1100–1300 g, 10 min). These samples were stored at −20 °C before dispatching to Simbec Research Ltd. (Merthyr Tydfil, UK) for quantification by validated ELISA, in compliance with The UK Good Laboratory Practice Regulations 1999 (Statutory Instrument No. 310 6) and subsequent amendment, OECD Principles of Good Laboratory Practice (Paris 1998) and EC Commission Directive 2004/10/EC of February 2004.
Pharmacokinetic data were analysed using Phoenix® WinNonlin® 5.1 (Certara USA, Inc., Princeton, NJ, USA) from quantified PTH 1-34 in the plasma, using recorded sampling times. Summary statistics (mean, median, SD, coefficient of variation [CV%], minimum, maximum, n) and the following plasma pharmacokinetic parameters were calculated: • Cmax • Tmax • Terminal half-life (t1/2) • AUC to 2 h (AUC0–2h) • AUC to last measured time point (AUClast) and corresponding Frel for nasal formulation

[2] = cited from earlier work
[3] = conscious rats, nasal liquid formulation with Solutol HS15 (10%), first 2 h after administration; cited from earlier work
[4] = human volunteers, nasal powder formulations with Solutol HS15 compared to subcutaneous injection of hGH; cited from earlier work
Text: With the aim of improving upon the pharmacokinetics of the liquid nasal spray in humans, our continued research evaluated a bioadhesive powder formulation within a large animal (ovine) model. This is a model known to be highly representative of intranasal drug delivery that closely replicates the clinical findings. […] Likewise, we have published o ...

[5] = human, subcutaneous injection, estimated

| Tmax ([1]; female, plasma, sc, 20 ug, healthy female volunteers aged over 55 y, single 20 μg teriparatide subcutaneous injection into abdomen (Forsteo pen), plasma ELISA, mean of n = 7) [min] | AUC(0-t) ([1]; female, plasma, sc, 20 ug, healthy female volunteers aged over 55 y, single 20 μg teriparatide subcutaneous injection into abdomen (Forsteo pen), plasma ELISA, mean of n = 7, read-out: AUC0–2h (converted)) [ng·h/mL] | AUC(0-t) ([1]; female, plasma, sc, 20 ug, healthy female volunteers aged over 55 y, single 20 μg teriparatide subcutaneous injection into abdomen (Forsteo pen), plasma ELISA, mean of n = 7, read-out: AUC0–last (converted)) [ng·h/mL] | Cmax ([1]; female, plasma, sc, 20 ug, healthy female volunteers aged over 55 y, single 20 μg teriparatide subcutaneous injection into abdomen (Forsteo pen), plasma ELISA, mean of n = 7, read-out: Cmax) [ng/mL] | time by which teriparatide concentrations returned to zero ([1]; 20 μg teriparatide subcutaneous injection) [h] | elimination t1/2 ([1]; 20 μg teriparatide subcutaneous injection, mean) | half-life ([1]; sc, 20 ug, healthy female volunteers aged over 55 y, single 20 μg teriparatide subcutaneous injection into abdomen (Forsteo pen), plasma ELISA, mean of n = 7, read-out: t½) [min] | Molecule | absolute bioavailability of subcutaneous injection ([2]; human subjects, subcutaneous injection into the abdominal wall, intravenous injection 100%) | prolongation in the time to reach peak concentration (Tmax), thigh as opposed to abdomen [2, 5] [min] | reduction in maximum plasma teriparatide concentrations (Cmax), thigh as opposed to abdomen [2, 5] [%] | slower rate of absorption, injection into the thigh as opposed to the abdomen [2, 5] [%] | relative bioavailability [3] [%] | relative bioavailability [4] |
| --- | --- | --- | --- | --- | --- | --- | --- | --- | --- | --- | --- | --- | --- |
| 21.4 | 0.29 | 0.345 | 0.253 | ≤ 6 | approximately 1 h | 64.8 | CC[C@H](C)[C@H](NC(=O)[C@H](CCC(=O)O)NC(=O)[C@H](CO)NC(=O)[C@@H](NC(=O)[C@@H](N)CO)C(C)C)C(=O)N[C@@H](CCC(N)=O)C(=O)N[C@@H](CC(C)C)C(=O)N[C@@H](CCSC)C(=O)N[C@@H](Cc1cnc[nH]1)C(=O)N[C@@H](CC(N)=O)C(=O)N[C@@H](CC(C)C)C(=O)NCC(=O)N[C@@H](CCCCN)C(=O)N[C@@H](Cc1cnc[nH]1)C(=O)N[C@@H](CC(C)C)C(=O)N[C@@H](CC(N)=O)C(=O)N[C@@H](CO)C(=O)N[C@@H](CCSC)C(=O)N[C@@H](CCC(=O)O)C(=O)N[C@@H](CCCN=C(N)N)C(=O)N[C@H](C(=O)N[C@@H](CCC(=O)O)C(=O)N[C@@H](Cc1c[nH]c2ccccc12)C(=O)N[C@@H](CC(C)C)C(=O)N[C@@H](CCCN=C(N)N)C(=O)N[C@@H](CCCCN)C(=O)N[C@@H](CCCCN)C(=O)N[C@@H](CC(C)C)C(=O)N[C@@H](CCC(N)=O)C(=O)N[C@@H](CC(=O)O)C(=O)N[C@H](C(=O)N[C@@H](Cc1cnc[nH]1)C(=O)N[C@@H](CC(N)=O)C(=O)N[C@@H](Cc1ccccc1)C(=O)O)C(C)C)C(C)C [teriparatide] | up to 95% | 1.5 | 18 | 21 | – | – |
| – | – | – | – | – | – | – | hGH: human growth hormone (MW 22kDa), given nasally with Solutol HS15 in earlier studies | – | – | – | – | 49 | about 3% |
